Here are results for twelve compounds from paper PMC11395397, “Isolation and Characterization of Novel Pueroside B Isomers and Other Bioactive Compounds from Pueraria lobata Roots: Structure Elucidation, α-Glucosidase, and α-Amylase Inhibition Studies” (International Journal of Molecular Sciences, 2024).

Test [1] has as its target T1, α-Glucosidase (from yeast, EC 3.2.1.20) (Saccharomyces cerevisiae, UniProt P53341).
T1 construct: purchased Shanghai Yuanye Bio-Technology Co., Ltd. (Shanghai, China)
The test is described as follows: biochemical. Type of test: biochemical. The conditions noted are these: for IC50: means ± SD, n = 3, yeast enzyme, p-NPG substrate, 37 °C; for α-glucosidase inhibitory activity (in words): tested up to 100.00 μM. The protocol: (§1) ESI-HR-MS was recorded on an Orbitrap Exploris 120 quadrupole electrostatic field orbital well high-resolution mass spectrometer for UPLC-Q-Orbitrap HRMS (Waltham, MA, USA) equipped with a Hypersil GOLD C18 column (2.1 × 100 mm, 1.9 μm, ThermoFisher, Waltham, MA, USA). Optical rotations were measured on an MCP 500 polarimeter (Anton Paar, Graz, Austria). CD spectra were obtained using a Chirascan circular dichroism spectrometer (Applied PhotoPhysics, Leatherhead, Surrey, UK). UV spectra were measured with a UV-3600 Plus spectrophotometer (Shimadzu, Kyoto, Japan), and IR spectra were obtained using an IR Affinity-1S spectrophotometer (Shimadzu, Kyoto, Japan). Preparative and semipreparative HPLC were performed on a Shimadzu LC-16 system using a reverse-phase C18 column (20 × 250 mm, 5 μm, Shimadzu, Kyoto, Japan). NMR experiments were conducted on a Bruker AVANCE-600 instrument with tetramethylsilane (TMS) as an internal standard, operating at 600 MHz for ^1H NMR and 150 MHz for ^13C NMR (Ettlingen, Germany). Enzyme inhibition activity was measured using an Agilent Synergy H1 microplate reader (Agilent Technologies, Santa Clara, CA, USA). Macroporous resin AB-8 was obtained from the Chemical Plant of Nankai University (Tianjin, China). […] Analytical-grade reagents were procured from Da Mao Chemical Reagent Co., Ltd. (Tianjin, China), chromatographic-grade reagents from Honeywell Trade (Shanghai) Co., Ltd. (Shanghai, China), and distilled water from Watsons (Hong Kong, China).
Then, 400 μL of p-NPG solution (5 mM) was added to initiate the enzymatic reaction, which continued to incubate at 37 °C for 20 min. The reaction was terminated by placing the mixture in a −20 °C freezer for 10 min. Absorbance was measured at 405 nm using a microplate reader.

The target of test [2] is T2, α-amylase (from porcine pancreas) (Sus scrofa, UniProt P00690).
T2 construct: purchased Shanghai Yuanye Bio-Technology Co., Ltd. (Shanghai, China); host or cells: porcine pancreas
T2 sequence (P00690 16-511): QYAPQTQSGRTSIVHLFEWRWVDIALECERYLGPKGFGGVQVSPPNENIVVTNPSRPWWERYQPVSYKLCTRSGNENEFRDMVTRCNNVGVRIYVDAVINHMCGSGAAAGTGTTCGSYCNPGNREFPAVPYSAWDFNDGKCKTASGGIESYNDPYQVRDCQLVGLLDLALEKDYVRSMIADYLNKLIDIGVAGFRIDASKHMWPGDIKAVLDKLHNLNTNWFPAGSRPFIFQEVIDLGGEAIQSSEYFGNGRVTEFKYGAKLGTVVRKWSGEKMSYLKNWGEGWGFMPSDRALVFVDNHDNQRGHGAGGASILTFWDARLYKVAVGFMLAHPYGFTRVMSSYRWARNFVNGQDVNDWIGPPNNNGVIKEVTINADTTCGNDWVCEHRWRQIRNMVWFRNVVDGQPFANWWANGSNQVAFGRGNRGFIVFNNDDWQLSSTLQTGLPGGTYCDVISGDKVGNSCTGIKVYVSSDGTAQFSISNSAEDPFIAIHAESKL
Put plainly: α-amylase inhibition assay (DNS colorimetric, 540 nm). It is filed as biochemical. As to conditions: for IC50: means ± SD, n = 3, porcine pancreas enzyme, DNS method, 37 °C; for α-amylase inhibitory activity (in words): tested up to 100.00 μM. The protocol:
as §1
Test sample solutions at various concentrations (5.00, 10.00, 20.00, 40.00, 60.00, 80.00, and 100.00 μM) were preincubated with α-amylase (2 U/mL) at 37 °C for 10 min. The reaction was terminated by adding 200 μL of DNS reagent and boiling the mixture at 100 °C for 5 min to inactivate the enzyme. After cooling to room temperature, 1 mL of distilled water was added for dilution, and absorbance was measured at 540 nm.

Read-outs that look alike come from different tables or passages of the source.

As usually defined, the IC50 is the concentration that gives 50% inhibition.

T1 sequence (P53341 whole entry): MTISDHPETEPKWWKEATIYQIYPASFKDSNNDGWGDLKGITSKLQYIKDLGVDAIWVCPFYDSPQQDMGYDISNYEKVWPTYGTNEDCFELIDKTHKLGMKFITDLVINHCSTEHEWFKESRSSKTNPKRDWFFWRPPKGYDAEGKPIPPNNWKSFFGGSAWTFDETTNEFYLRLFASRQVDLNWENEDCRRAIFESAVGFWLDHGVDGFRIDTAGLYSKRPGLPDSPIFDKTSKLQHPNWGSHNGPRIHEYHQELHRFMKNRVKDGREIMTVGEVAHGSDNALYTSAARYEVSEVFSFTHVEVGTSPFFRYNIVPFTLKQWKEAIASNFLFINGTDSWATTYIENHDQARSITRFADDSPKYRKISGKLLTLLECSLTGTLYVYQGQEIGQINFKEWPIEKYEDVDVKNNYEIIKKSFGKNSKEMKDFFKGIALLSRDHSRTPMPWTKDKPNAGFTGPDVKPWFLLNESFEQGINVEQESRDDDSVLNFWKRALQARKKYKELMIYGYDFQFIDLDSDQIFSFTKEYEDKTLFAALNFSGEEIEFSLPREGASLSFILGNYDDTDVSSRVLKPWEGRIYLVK

In the case of `COc1ccc(C2=CC(=O)OC2Cc2ccc(O)cc2)c(OC2OC(CO)C(O)C(O)C2O)c1` (single isomer, unassigned; (-)) [Compound 3, (−)-puerol B-2-O-glucopyranoside], the IC50 in test [1] (read-out: IC50 α-Glucosidase) was found to be 72.9 ± 0.79 µM; in test [2] (read-out: IC50 α-Amylase), 83.6 ± 1.15 µM. The “α-glucosidase inhibitory activity (in words)” value in test [1] is listed as “significant inhibitory activity”. Moreover, the “α-amylase inhibitory activity (in words)” value in test [2] is recorded as “significant inhibitory activity”.

As for `CC1(C)C=Cc2cc3c(cc2O1)OC1C2(O)C=CC(=O)C=C2OCC31O` (stereo not drawn) [Compound 11, hydroxytuberosone], the IC50 amounted to 32.2 ± 0.71 µM in test [1] (read-out: IC50 α-Glucosidase) and 38.9 ± 1.08 µM in test [2] (read-out: IC50 α-Amylase).

As for `COc1ccc2c(c[n+](C)c3c4cc5c(cc4ccc23)OCO5)c1OC` [Compound 6, chelerythrine], the figures for the IC50 in test [1] (read-out: IC50 α-Glucosidase) and in test [2] (read-out: IC50 α-Amylase) were 52.3 ± 1.59 µM and 71.4 ± 1.24 µM, respectively.

Regarding `COc1cc2c(cc1O)[C@@H](Cc1ccc(O)c(Oc3ccc(C[C@@H]4c5cc(OC)c(OC)cc5CCN4C)cc3)c1)N(C)CC2` [Compound 5, daurisoline], the IC50 turned out to be 45.2 ± 1.27 µM in test [1] (IC50 α-Glucosidase) and 66.4 ± 2.31 µM in test [2] (read-out: IC50 α-Amylase).

As for `COc1ccc(C2=CC(=O)OC2Cc2ccc(OC3OC(CO)C(O)C(O)C3O)cc2)c(OC2OC(CO)C(O)C(O)C2O)c1` (stereo not drawn) [Compound 1, 4R-pueroside B], the 50% inhibitory concentration (IC50) turned out to be 61.3 ± 1.15 µM in test [1] (read-out: IC50 α-Glucosidase) and 81.7 ± 1.72 µM in test [2] (read-out: IC50 α-Amylase). Also, in test [1], the “α-glucosidase inhibitory activity (in words)” value was “significant inhibitory activity”. For the same compound, in test [2], the “α-amylase inhibitory activity (in words)” value is given as “significant inhibitory activity”.

Turning to `COc1ccc(C2=CC(=O)OC2Cc2ccc(OC3OC(CO)C(O)C(O)C3O)cc2)c(OC2OC(CO)C(O)C(O)C2O)c1` (stereo not drawn) [Compound 2, 4S-pueroside B], the IC50 in test [1] (read-out: IC50 α-Glucosidase) and in test [2] (read-out: IC50 α-Amylase) was greater than 100 µM throughout. In addition, in test [1], the “α-glucosidase inhibitory activity (in words)” value is “did not show any activity”. Besides, the “α-amylase inhibitory activity (in words)” value in test [2] is “did not show any activity”.

Consider `COc1cc(O)ccc1C(O)C(=O)Cc1ccc(O)cc1` (stereo not drawn) [Compound 10], for which the values for the IC50 in test [1] (read-out: IC50 α-Glucosidase) and in test [2] (read-out: IC50 α-Amylase) were 43.6 ± 0.76 µM and 63.6 ± 1.37 µM, respectively.

Regarding `COC1=C[C@@H]2[C@@H]3Cc4ccc(OC)c(O)c4[C@]2(CCN3C)CC1=O` [Compound 9, sinomenine], the IC50 in test [1] (IC50 α-Glucosidase) was 57.6 ± 0.88 µM; in test [2] (IC50 α-Amylase), 66.7 ± 1.45 µM.

Turning to `COc1cc2c(cc1OC)[C@@H](Cc1ccc(Oc3cc(C[C@@H]4c5cc(OC)c(OC)cc5CCN4C)ccc3O)cc1)N(C)CC2` [Compound 4, dauricine], the IC50 in test [1] (IC50 α-Glucosidase) is 44.2 ± 1.03 µM; in test [2] (read-out: IC50 α-Amylase), 60.9 ± 1.68 µM.

Take `COC1=CC(=O)[C@@]2([C@@H]1O)[C@@H](Cl)C[C@@]13C(OC)=C(OC)C(=O)C[C@@]21CCN3C` [Compound 8, acutumine]: the IC50 is 66.5 ± 2.03 µM in test [1] (read-out: IC50 α-Glucosidase) and 80.7 ± 1.85 µM in test [2] (read-out: IC50 α-Amylase).

With `CC1(C)CC(=O)C2(C)CCC3(C)C(=CCC4C5(C)CCC(=O)C(C)(CO)C5CCC43C)C2C1` (stereo not drawn) [Compound 12, melilotigenin B], the results for the IC50 in test [1] (read-out: IC50 α-Glucosidase) and in test [2] (read-out: IC50 α-Amylase) were 23.3 ± 0.38 µM and 30.9 ± 0.57 µM, respectively.

As to `COc1cc2c(cc1O)[C@@H]1Cc3ccc(O)c(OC)c3CN1CC2` [Compound 7, stepholidine], the IC50 in test [1] (read-out: IC50 α-Glucosidase) came out at 58.8 ± 1.55 µM; in test [2] (read-out: IC50 α-Amylase) it was 78.2 ± 1.98 µM.
